Assay results as given in patent US20240209011A1, “HETEROAROMATIC PHOSPHONIUM SALTS FOR TREATING CANCER” (FLORATEK PHARMA S.A., priority 2021, published 2024).

How the values were obtained:
[1] = test system: Panc-1; test: Cell viability assay (CellTiter-Blue/CellTiter-Glow); type: cell-based; conditions: Homo sapiens; pancreatic carcinoma cell line Panc-1; absolute IC50; 72 h
Method in brief: (§1)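 Tumour cells were plated at 4,000-20,000 cells/well (up to 60,000 for haematological lines) in RPMI 1640 or DMEM with 10% FCS, then exposed 24 h later to compounds for 72 h at 37 °C. Viability was read by CellTiter-Blue fluorescence or CellTiter-Glo luminescence; absolute IC50 taken at T/C=50%.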

[2] = test system: MDA-MB-231; test: as above; type: cell-based; conditions: Homo sapiens; breast carcinoma cell line MDA-MB-231; absolute IC50; 72 h
Method in brief: as §1

[3] = test system: HCC1806; test: as above; type: cell-based; conditions: Homo sapiens; breast carcinoma cell line HCC1806; absolute IC50; 72 h
Method in brief: as §1

[4] = test system: SH-SY-5Y; test: as above; type: cell-based; conditions: Homo sapiens, SH-SY5Y; brain carcinoma cell line SH-SY-5Y; absolute IC50; 72 h
Method in brief: as §1

[5] = test system: MDA-MB-436; test: as above; type: cell-based; conditions: Homo sapiens; breast carcinoma cell line MDA-MB-436; absolute IC50; 72 h
Method in brief: as §1

[6] = test system: T47D; test: as above; type: cell-based; conditions: Homo sapiens; breast carcinoma cell line T47D; absolute IC50; 72 h
Method in brief: as §1

[7] = test system: ZR-75-1; test: as above; type: cell-based; conditions: Homo sapiens; breast carcinoma cell line ZR-75-1; absolute IC50; 72 h
Method in brief: as §1

[8] = test system: SK-N-AS; test: as above; type: cell-based; conditions: Homo sapiens; brain carcinoma cell line SK-N-AS; absolute IC50; 72 h
Method in brief: as §1

[9] = test system: BT-474; test: as above; type: cell-based; conditions: Homo sapiens; breast carcinoma cell line BT-474; absolute IC50; 72 h
Method in brief: as §1

[10] = biological target: T1, ABL1(E255K)-phosphorylated (Homo sapiens, UniProt P00519, E255K); test: KINOMEscan competition binding assay, Kd; conditions: 11-point 3-fold dilution series
T1 construct: purchased Eurofins (KINOMEscan); host or cells: T7 phage in BL21-derived E. coli, or HEK-293
Experimental: (§2) Selected compounds were screened for kinase inhibition using the KINOMEscan™ assay (Eurofins) which is based on a competition binding assay that quantitatively measures the ability of a compound to compete with an immobilized, active-site directed ligand. The assay was performed by combining three components: DNA-tagged kinase; immobilized ligand; and the test compound. The ability of the test compound to compete with the immobilized ligand was measured via quantitative PCR of the DNA tag.
(§3) Kinase-tagged T7 phage strains were prepared in an E. coli host derived from the BL21 strain. E. coli were grown to log-phase and infected with T7 phage and incubated with shaking at 32° C. until lysis. The lysates were centrifuged and filtered to remove cell debris. The remaining kinases were produced in HEK-293 cells and subsequently tagged with DNA for qPCR detection. Streptavidin-coated magnetic beads were treated with biotinylated small molecule ligands for 30 minutes at room temperature to generate affinity resins for kinase assays. The liganded beads were blocked with excess biotin and washed with blocking buffer (SeaBlock (Pierce), 1% BSA, 0.05% Tween 20, 1 mM DTT) to remove unbound ligand and to reduce non-specific binding. Binding reactions were assembled by combining kinases, liganded affinity beads, and test compounds in 1× binding buffer (20% SeaBlock, 0.17×PBS, 0.05% Tween 20, 6 mM DTT). Test compounds were prepared as 111× stocks in 100% DMSO. Kds were determined using an 11-point 3-fold compound dilution series with three DMSO control points. All compounds for Kd measurements are distributed by acoustic transfer (non-contact dispensing) in 100% DMSO. The compounds were then diluted directly into the assays such that the final concentration of DMSO was 0.9%. All reactions performed in polypropylene 384-well plate. Each was a final volume of 0.02 ml. The assay plates were incubated at room temperature with shaking for 1 hour and the affinity beads were washed with wash buffer (1×PBS, 0.05% Tween 20). The beads were then resuspended in elution buffer (1×PBS, 0.05% Tween 20, 0.5 μM nonbiotinylated affinity ligand) and incubated at room temperature with shaking for 30 minutes. The kinase concentration in the eluates was measured by qPCR.
(§4) Binding constants (Kds) were calculated with a standard dose-response curve using the Hill equation: Response=Background+[Signal−Background/i+(Kd^Hill Slope/Dose^Hill Slope)]. The Hill Slope was set to −1. Curves were fitted using a non-linear least square fit with the Levenberg-Marquardt algorithm.

[11] = biological target: T2, ABL1-nonphosphorylated (Homo sapiens, UniProt P00519); test: KINOMEscan competition binding assay, Kd; conditions: 11-point 3-fold dilution series
T2 construct: purchased Eurofins (KINOMEscan); host or cells: T7 phage in BL21-derived E. coli, or HEK-293
Experimental: as §2, §3, §4

[12] = biological target: T3, ABL1-phosphorylated (Homo sapiens, UniProt P00519); test: KINOMEscan competition binding assay, Kd; conditions: 11-point 3-fold dilution series
T3 construct: purchased Eurofins (KINOMEscan); host or cells: T7 phage in BL21-derived E. coli, or HEK-293
Experimental: as §2, §3, §4

T3 sequence (P00519 whole entry): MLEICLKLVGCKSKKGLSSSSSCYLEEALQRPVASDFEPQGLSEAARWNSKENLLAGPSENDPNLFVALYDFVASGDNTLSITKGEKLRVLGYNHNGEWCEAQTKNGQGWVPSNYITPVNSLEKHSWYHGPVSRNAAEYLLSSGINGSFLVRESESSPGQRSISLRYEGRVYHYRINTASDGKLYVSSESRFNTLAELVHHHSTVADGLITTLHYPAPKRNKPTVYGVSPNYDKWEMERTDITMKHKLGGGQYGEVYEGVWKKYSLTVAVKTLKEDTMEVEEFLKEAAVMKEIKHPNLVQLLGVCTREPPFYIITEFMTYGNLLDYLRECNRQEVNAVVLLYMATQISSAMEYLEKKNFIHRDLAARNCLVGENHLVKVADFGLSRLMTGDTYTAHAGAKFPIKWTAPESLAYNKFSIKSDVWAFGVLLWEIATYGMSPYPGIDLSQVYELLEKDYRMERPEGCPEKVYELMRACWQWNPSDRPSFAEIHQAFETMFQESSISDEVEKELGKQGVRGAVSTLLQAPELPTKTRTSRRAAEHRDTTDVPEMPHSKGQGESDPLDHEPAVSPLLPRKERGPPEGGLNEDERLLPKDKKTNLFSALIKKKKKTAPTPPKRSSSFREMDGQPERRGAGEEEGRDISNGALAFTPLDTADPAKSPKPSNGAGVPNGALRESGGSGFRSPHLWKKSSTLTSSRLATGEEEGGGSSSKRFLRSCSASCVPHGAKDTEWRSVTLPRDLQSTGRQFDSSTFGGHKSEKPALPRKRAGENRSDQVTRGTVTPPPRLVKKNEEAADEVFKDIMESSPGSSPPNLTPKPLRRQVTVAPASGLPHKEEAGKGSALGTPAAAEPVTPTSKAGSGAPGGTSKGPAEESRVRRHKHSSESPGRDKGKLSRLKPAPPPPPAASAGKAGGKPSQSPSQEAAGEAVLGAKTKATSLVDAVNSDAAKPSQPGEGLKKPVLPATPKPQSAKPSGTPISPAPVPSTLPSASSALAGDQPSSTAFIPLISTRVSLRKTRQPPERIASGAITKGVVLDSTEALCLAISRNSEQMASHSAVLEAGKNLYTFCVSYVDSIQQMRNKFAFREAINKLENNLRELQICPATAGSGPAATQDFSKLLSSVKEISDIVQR
T2 sequence (P00519 whole entry): as above
T1 sequence (P00519 whole entry E255K): as the sequence (P00519 whole entry) above, with E255K counted along it

| IC50 [1] [nM] | IC50 [2] [nM] | IC50 [3] [nM] | IC50 [4] [nM] | IC50 [5] [nM] | IC50 [6] [nM] | IC50 [8] [nM] | IC50 [9] [nM] | Kd [10] [nM] | Kd [11] [nM] | Kd [12] [nM] | Structure (SMILES) | IC50 [7] [nM] |
| --- | --- | --- | --- | --- | --- | --- | --- | --- | --- | --- | --- | --- |
| 2320 | 2000 | 2300 | 4900 | 2300 | 1700 | 3500 | 1600 | 970 | 1300 | 860 | O=c1cc(-c2ccc(CCCC[P+](c3ccccc3)(c3ccccc3)c3ccccc3)cc2)oc2c3c(ccc12)OCO3.[Br-] [SND123, 4-[4-(6-oxo-[1,3]dioxolo[4,5-h]chromen-8-yl)phenyl]butyl-triphenylphosphonium bromide] | 2500 |
|  |  |  |  |  |  |  |  | 660 | 1500 | 700 | COc1c(O)ccc2c(=O)cc(-c3ccc(CCCC[P+](c4ccccc4)(c4ccccc4)c4ccccc4)cc3)oc12.[Br-] [SND140, (4-(4-(7-hydroxy-8-methoxy-4-oxo-4H-chromen-2-yl)phenyl)butyl)triphenylphosphonium bromide] |  |
